“And” between values parts separate entries of the source, which are not always exact repeats. Equal entries are not always repeated.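 Each compound was tested at five concentrations against cells in 96-well plates for 48 hours. GI50 marks 50% less growth. At the TGI there is no net growth.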
Legend:
Assay in all cases: inhibition of tumour cell growth, NCI panel, 48 h
NCI-H226 lung = system: NCI-H226 lung
HCT-15 colon = system: HCT-15 colon
SK-MEL-5 melanoma = system: SK-MEL-5 melanoma
ACHN renal = system: ACHN renal
OVCAR-4 ovarian = system: OVCAR-4 ovarian
NCI/ADR-RES ovarian = system: NCI/ADR-RES ovarian
DU-145 prostate = system: DU-145 prostate
SF-539 CNS = system: SF-539 CNS
HL-60(TB) leukemia = system: HL-60(TB) leukemia
SNB-19 CNS = system: SNB-19 CNS

Structure (SMILES)	GI50 (NCI-H226 lung) [µM]	TGI (NCI-H226 lung)	GI50 (HCT-15 colon)	TGI (HCT-15 colon)	GI50 (SK-MEL-5 melanoma) [µM]	TGI (SK-MEL-5 melanoma)	GI50 (ACHN renal)	TGI (ACHN renal)	GI50 (OVCAR-4 ovarian) [µM]	TGI (OVCAR-4 ovarian)	GI50 (NCI/ADR-RES ovarian)	TGI (NCI/ADR-RES ovarian)	GI50 (DU-145 prostate) [µM]	TGI (DU-145 prostate) [µM]	GI50 (SF-539 CNS)	TGI (SF-539 CNS)	GI50 (HL-60(TB) leukemia)	TGI (HL-60(TB) leukemia)	GI50 (SNB-19 CNS) [µM]	TGI (SNB-19 CNS)
CN(C)c1ccc(/C=C2\N=C(c3ccccc3)N(c3cc(C(F)(F)F)ccc3Cl)C2=O)cc1	> 90.4	> 100 µM	> 100 µM	> 100 µM	> 100	> 100 µM	> 100 µM	> 100 µM	> 69	> 100 µM	> 100 µM	> 100 µM	> 100	> 100	> 100 µM	> 100 µM	> 100 µM	> 100 µM	> 100	> 100 µM
COC(=O)C12CC(NC(=O)c3csc([C@@H](C[C@H](C(C)C)N(C)C(=O)[C@@H](NC(=O)[C@H]4CCCCN4C)C4CC4)OC(C)=O)n3)(C1)C2	0.582	> 16.7 µM	0.112 µM	> 16.7 µM	0.023	0.449 µM	0.123 µM	> 16.7 µM	0.427	> 16.7 µM	4.69 µM	> 16.7 µM	0.0154	> 16.7	0.00853 µM	0.0613 µM	0.00243 µM	0.00876 µM	0.0581	> 16.7 µM
NC(=O)[C@@H](CC1CC1)[C@@H](CCC(F)(F)F)C(=O)N[C@H]1N=C(c2ccccc2)c2cccc(F)c2NC1=O	> 100	> 100 µM	> 100 µM	> 100 µM	17.7	35.1 µM	66 µM	> 100 µM	54.9	> 100 µM	> 100 µM	> 100 µM	> 100	> 100	17.4 µM	38.9 µM	11.5 µM	39.1 µM	> 100	> 100 µM
CC[C@@]1(OC(=O)CN)C(=O)OCc2c1cc1n(c2=O)Cc2c-1nc1cc3c(cc1c2CCl)OCO3	0.0201	0.397 µM	0.372 µM	10.2 µM	< 0.0118	0.5 µM	< 0.01 µM	0.244 µM	0.381	11.3 µM	< 0.01 µM	0.0583 µM	< 0.01	> 33.6	< 0.01 µM	< 0.0318 µM	< 0.01 µM	–	< 0.01	13.7 µM
COC(=O)c1cc2c(cc1Cl)SC1=NN(C)S(=O)N1S2(=O)=O (configuration not stated)	> 100	> 100 µM	> 100 µM	> 100 µM	> 100	> 100 µM	> 100 µM	> 100 µM	> 100	> 100 µM	> 100 µM	> 100 µM	> 100	> 100	> 100 µM	> 100 µM	> 100 µM	> 100 µM	> 100	> 100 µM
CSc1ncc(Br)c(Sc2nc(N)nc3nc[nH]c23)n1	2.65	29.5 µM	3.18 µM	50.8 µM	3.12	36.1 µM	4.5 µM	43.6 µM	5.08	> 100 µM	3.64 µM	> 100 µM	1.44	23.9	3.2 µM	15 µM	4.34 µM	27.3 µM	22.3	> 100 µM
Cc1nc2ccc(Br)cc2c(=O)n1-c1ccc(NC2OCC(O)C(O)C2O)cc1 (configuration not stated)	–	> 100 µM	19.7 µM and > 100 µM	43.6 µM and > 100 µM	–	> 100 µM	35.6 µM and > 100 µM	> 100 µM	–	> 100 µM	41.9 µM and > 100 µM	> 100 µM	–	> 100	18.3 µM and > 100 µM	37.2 µM and > 100 µM	34.9 µM and 73.1 µM	> 100 µM	–	> 100 µM
CC1=C2C(=CC(C)(C)[C@@H]2O)C(=O)[C@](C)(O)C12CC2	0.0709	0.232 µM and 0.171 µM	0.00514 µM	–	0.0159	0.0358 µM and 0.0269 µM	0.00796 µM	0.0625 µM and 0.114 µM	0.0147	0.201 µM and 0.0458 µM	0.0223 µM	0.104 µM and 0.0155 µM	0.00545	0.0262	–	0.0548 µM and 0.038 µM	0.00901 µM and 0.0194 µM	0.0495 µM and 0.0832 µM	0.0523	0.371 µM and 0.279 µM
O=S1(=O)N(Cc2ccccc2)[C@@H](Cc2ccccc2)[C@H](O)[C@H](O)[C@H](Cc2ccccc2)N1Cc1ccccc1	3.04	6.17 µM	4.37 µM	18.2 µM	3.05	5.8 µM	6.01 µM	> 20 µM	2.72	7.26 µM	3.4 µM	8.58 µM	3.21	7.55	3.37 µM	6.76 µM	2.97 µM	8.72 µM	4.69	> 20 µM
Cc1cc(Nc2nc(C(=O)Nc3ccccc3)nc3ccccc23)n[nH]1	10	> 25 µM	1.39 µM	> 25 µM	22.5	> 25 µM	2.87 µM	> 25 µM	7.87	> 25 µM	0.916 µM	> 25 µM	9.08	> 25	> 25 µM	> 25 µM	5.9 µM	> 25 µM	> 25	> 25 µM
c1cc(-c2nnc(SSc3ncnc4nc[nH]c34)o2)ccn1	4.63	> 100 µM	2.8 µM	> 100 µM	3.46	> 100 µM	4.07 µM	> 100 µM	0.519	> 100 µM	2.74 µM	> 100 µM	0.455	> 100	1.84 µM	> 100 µM	2.49 µM	> 100 µM	78.4	> 100 µM
Cc1cc(C)c2c(n1)sc1c(N)ncnc12	11.9	> 25 µM	> 25 µM	> 25 µM	> 25	> 25 µM	14.2 µM	> 25 µM	> 25	> 25 µM	> 25 µM	> 25 µM	> 25	> 25	> 24.1 µM	> 25 µM	> 25 µM	> 25 µM	> 25	> 25 µM
CCCCCCCCOC(=O)c1c(C)[nH]c(/C=C2\N=C(c3ccc[nH]3)C=C2OC)c1C	0.0873	6.26 µM	< 0.0163 µM	3.15 µM	0.0169	0.0819 µM	0.0322 µM	1.77 µM	0.034	16.8 µM	0.0367 µM	9.86 µM	0.0427	9.87	0.0529 µM	2.62 µM	0.0688 µM	4.25 µM	0.551	> 46.3 µM
CCOc1ccc(/C(C=O)=C(\Cl)c2ccc(OC)cc2)cc1	–	> 100 µM	–	> 100 µM	–	> 100 µM	–	> 100 µM	–	> 100 µM	–	> 100 µM	–	> 100	–	> 100 µM	–	> 100 µM	–	> 100 µM
